From patent publication US8377884B2, “Variants of C-type natriuretic peptides” (Biomarin Pharmaceutical Inc., priority 2007, dated 2013)
Read-outs that look alike come from different tables or passages of the source. Numbered stars: 1 amine (or outer) side, 2 acyl side, 3 side chain; on linkers, the order of the positions; unused ones are H or OH. Bridge positions count the residues as written; N and C are the ends. Square brackets hold non-standard residues; d marks the D form. Ends that are not written are not given here. Peptide text beside a SMILES is read from it. PEG2K = polydispersed PEG of number-average molecular weight 2 kDa; X1 = O=C(C(CN[*:1])c1ccccc1)[*:2]

Experiments:
Recombinant human NEP = Recombinant human NEP (Homo sapiens, UniProt P08473); assay: in vitro; conditions: for NEP Cleavage (t1/2, min): pH 7
Outline: (§1)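 Recombinant human NEP (1 ug/mL final) incubated with 100 uM CNP variant in 0.1 M Tris, pH 7, at 37° C for various times, then quenched with EDTA (10 mM final) and heat. Samples reduced and analysed by HPLC and mass spectrometry. Half-life derived from loss of intact variant over time.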

NPR-B = molecular target: T1, NPR-B (Mus musculus, UniProt Q6VVW5); assay: Stimulation of cGMP production in NIH3T3 cells; format: cell-based, Murine; conditions: for cGMP response relative to 1 uM CNP22 (%) at 0.01 µM: read-out: cGMP Response rel. to 1 uM CNP22, 10 nM; for cGMP response relative to 1 uM CNP22 (%) at 1 µM: read-out: cGMP Response rel. to 1 uM CNP22, 1 uM
T1 construct: Murine NIH3T3 cells express endogenously the CNP signaling receptor, NPR-B; endogenous in cells; host or cells: NIH3T3 (murine fibroblasts)
T1 sequence (Q6VVW5 17-1047): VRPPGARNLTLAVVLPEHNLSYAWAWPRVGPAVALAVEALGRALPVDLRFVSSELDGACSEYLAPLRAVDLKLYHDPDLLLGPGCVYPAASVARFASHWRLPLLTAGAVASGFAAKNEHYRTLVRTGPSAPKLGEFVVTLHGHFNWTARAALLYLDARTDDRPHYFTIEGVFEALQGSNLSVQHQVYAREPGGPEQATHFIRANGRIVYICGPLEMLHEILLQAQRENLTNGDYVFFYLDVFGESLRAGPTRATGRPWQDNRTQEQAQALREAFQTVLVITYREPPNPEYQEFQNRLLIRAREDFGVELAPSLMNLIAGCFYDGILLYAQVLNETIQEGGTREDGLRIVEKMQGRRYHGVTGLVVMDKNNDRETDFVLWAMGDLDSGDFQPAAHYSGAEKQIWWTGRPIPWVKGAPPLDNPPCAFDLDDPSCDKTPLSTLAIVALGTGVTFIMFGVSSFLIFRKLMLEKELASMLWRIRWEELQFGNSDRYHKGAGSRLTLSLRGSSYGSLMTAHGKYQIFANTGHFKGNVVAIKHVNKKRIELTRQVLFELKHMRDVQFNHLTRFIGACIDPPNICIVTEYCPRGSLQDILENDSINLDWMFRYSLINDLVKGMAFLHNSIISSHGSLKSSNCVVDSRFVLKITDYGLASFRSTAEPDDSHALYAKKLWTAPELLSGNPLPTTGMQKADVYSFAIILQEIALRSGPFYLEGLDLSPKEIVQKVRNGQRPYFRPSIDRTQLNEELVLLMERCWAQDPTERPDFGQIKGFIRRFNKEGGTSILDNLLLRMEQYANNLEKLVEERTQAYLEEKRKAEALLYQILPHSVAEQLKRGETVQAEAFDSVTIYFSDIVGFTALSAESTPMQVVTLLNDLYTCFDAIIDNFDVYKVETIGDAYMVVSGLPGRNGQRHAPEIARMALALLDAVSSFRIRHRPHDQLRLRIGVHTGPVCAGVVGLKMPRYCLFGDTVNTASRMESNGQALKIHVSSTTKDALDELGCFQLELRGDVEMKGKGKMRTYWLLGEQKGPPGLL

[1] = molecular target: neutral endopeptidase (NEP) (Homo sapiens, UniProt P08473); assay: in vitro; conditions: human, pH 7
Outline: as §1

[2] = NIH3T3 cells, 10 nM natriuretic peptide, normalized to cell number and cGMP production with 1 uM wtCNP22
[3] = NIH3T3 cells, 1 uM natriuretic peptide, normalized to cell number and cGMP production with 1 uM wtCNP22

Recombinant human NEP, sequence (P08473 whole entry): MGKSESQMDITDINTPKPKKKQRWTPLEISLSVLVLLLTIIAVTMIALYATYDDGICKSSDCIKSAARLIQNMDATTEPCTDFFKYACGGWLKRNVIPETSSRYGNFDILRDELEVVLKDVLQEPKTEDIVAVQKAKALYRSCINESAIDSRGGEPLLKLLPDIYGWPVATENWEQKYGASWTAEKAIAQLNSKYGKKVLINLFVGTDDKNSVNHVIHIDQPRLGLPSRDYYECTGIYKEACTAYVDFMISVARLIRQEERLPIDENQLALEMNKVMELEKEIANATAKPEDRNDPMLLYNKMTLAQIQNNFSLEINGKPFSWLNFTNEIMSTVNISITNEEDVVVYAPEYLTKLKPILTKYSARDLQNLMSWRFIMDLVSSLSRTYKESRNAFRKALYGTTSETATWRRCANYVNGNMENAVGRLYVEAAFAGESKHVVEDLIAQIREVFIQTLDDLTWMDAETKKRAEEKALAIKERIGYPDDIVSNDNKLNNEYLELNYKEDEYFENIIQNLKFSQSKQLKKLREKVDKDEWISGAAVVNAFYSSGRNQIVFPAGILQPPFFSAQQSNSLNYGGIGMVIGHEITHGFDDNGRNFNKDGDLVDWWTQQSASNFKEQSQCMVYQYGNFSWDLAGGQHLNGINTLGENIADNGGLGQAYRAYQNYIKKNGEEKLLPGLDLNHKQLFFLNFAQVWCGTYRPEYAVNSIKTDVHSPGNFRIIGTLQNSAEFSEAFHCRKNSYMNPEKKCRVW
neutral endopeptidase (NEP), sequence (P08473 whole entry): as above

Q: Which “resistance to NEP cleavage/degradation (in words)” value (Recombinant human NEP) does the source give for CC[C@H](C)[C@@H]1NC(=O)[C@H](CCCNC(=N)N)NC(=O)[C@H](CC(=O)O)NC(=O)[C@H](CC(C)C)NC(=O)[C@H](CCCCN)NC(=O)[C@H](CC(C)C)NC(=O)CNC(=O)[C@H](Cc2ccccc2)NC(=O)[C@@H](NC(=O)CNC(=O)[C@H](CCCNC(=N)N)NC(=O)[C@H](CO)NC(=O)[C@H](CC(C)C)NC(=O)CNC(=O)[C@H](CCCNC(=N)N)NC(=O)[C@H](CCCNC(=N)N)NC(=O)[C@H](CC(N)=O)NC(=O)[C@H](C)NC(=O)CN)CSSC[C@@H](C(=O)O)NC(=O)CNC(=O)[C@H](CC(C)C)NC(=O)CNC(=O)[C@H](CO)NC(=O)[C@H](CCSC)NC(=O)[C@H](CO)NC(=O)CNC1=O [Analog AY] (H-GANRRGLSRGCFGLKLDRIGSMSGLGC-OH; disulfide 11-27 (inferred); N-terminus and C-terminus assumed) here?
A: same lability to NEP hydrolysis as CNP22

Q: With “PEG20K-CNP22: CNP22 conjugated at the N-terminus to polydispersed PEG20K” as the compound, how does the “NEP Cleavage (t1/2, min)” value (Recombinant human NEP) read?
A: >>160 min

Q: And the “cGMP Response rel. to 1 uM CNP22, 10 nM” value (NPR-B; [2])?
A: 0

Q: And the “cGMP Response rel. to 1 uM CNP22, 1 uM” value (NPR-B; [3])?
A: 15

Q: How did the “resistance to NEP cleavage/degradation (in words)” value (Recombinant human NEP) turn out when “DLRVDTKSRAAWARLLQEHPNARKYKGANKKGLSKGCFGLKLDRIGSMSGLGC (disulfide 37-53 (inferred)) [Analog BM]” was run?
A: resistant to NEP degradation

Q: How did the “resistance to NEP cleavage/degradation (in words)” value (Recombinant human NEP) turn out when CC[C@H](C)[C@@H]1NC(=O)[C@H](CCCNC(=N)N)NC(=O)[C@H](CC(=O)O)NC(=O)[C@H](CC(C)C)NC(=O)[C@H](CCCCN)NC(=O)[C@H](CC(C)C)NC(=O)CNC(=O)[C@H](Cc2ccccc2)NC(=O)[C@@H](NC(=O)CNC(=O)[C@H](CCCCN)NC(=O)[C@H](CO)NC(=O)[C@H](CC(C)C)NC(=O)CNC(=O)[C@H](CCCNC(=N)N)NC(=O)[C@H](C)NC(=O)[C@H](CC(N)=O)NC(=O)[C@@H]2CCCN2C(=O)[C@H](Cc2c[nH]cn2)NC(=O)[C@H](CCC(=O)O)NC(=O)[C@H](CCC(N)=O)NC(=O)[C@H](CC(C)C)NC(=O)[C@H](CC(C)C)NC(=O)[C@H](CCCNC(=N)N)NC(=O)[C@H](C)NC(=O)[C@H](Cc2c[nH]c3ccccc23)NC(=O)[C@H](C)NC(=O)[C@H](C)N)CSSC[C@@H](C(=O)O)NC(=O)CNC(=O)[C@H](CC(C)C)NC(=O)CNC(=O)[C@H](CO)NC(=O)[C@H](CCSC)NC(=O)[C@H](CO)NC(=O)CNC1=O [CB] (H-AAWARLLQEHPNARGLSKGCFGLKLDRIGSMSGLGC-OH; disulfide 20-36 (inferred); N-terminus and C-terminus assumed) was run?
A: much more resistant to NEP cleavage than CNP22

Q: And the cGMP response relative to 1 uM CNP22 (%) at 0.01 µM (NPR-B; [2])?
A: 36%

Q: What about the cGMP response relative to 1 uM CNP22 (%) at 1 µM (NPR-B; [3]) of the same compound?
A: 84%

Q: Which results are given for “PEG5K-CNP22: CNP22 conjugated at the N-terminus to polydispersed PEG5K”?
A: resistance to NEP cleavage/degradation (in words) (Recombinant human NEP): resistant to NEP degradation over the assay period of 160 minutes; NEP Cleavage (t1/2, min) (Recombinant human NEP): >>160 min; cGMP Response rel. to 1 uM CNP22, 10 nM (NPR-B; [2]): 8 ± 1; cGMP Response rel. to 1 uM CNP22, 1 uM (NPR-B; [3]): 20 ± 7

Q: Which “resistance to cleavage at the Cys6-Phe7 bond relative to wtCNP22” value (Recombinant human NEP; data not shown) does the source give for CC[C@H](C)[C@@H]1NC(=O)[C@H](CCCNC(=N)N)NC(=O)[C@H](CC(=O)O)NC(=O)[C@H](CC(C)C)NC(=O)[C@H](CCCCN)NC(=O)[C@H](CC(C)C)NC(=O)CNC(=O)[C@H](Cc2ccccc2)NC[C@@H](NC(=O)CNC(=O)[C@H](CCCCN)NC(=O)[C@H](CO)NC(=O)[C@H](CC(C)C)NC(=O)CN)CSSC[C@@H](C(=O)O)NC(=O)CNC(=O)[C@H](CC(C)C)NC(=O)CNC(=O)[C@H](CO)NC(=O)[C@H](CCSC)NC(=O)[C@H](CO)NC(=O)CNC1=O [A] here?
A: resistance or improved resistance

Q: With CC[C@H](C)[C@@H]1NC(=O)[C@H](CCCNC(=N)N)NC(=O)[C@H](CC(=O)O)NC(=O)[C@H](CC(C)C)NC(=O)[C@H](CCCCN)NC(=O)[C@H](CC(C)C)NC(=O)CNC(=O)[C@H](Cc2ccccc2)NC(=O)[C@@H](NC(=O)CNC(=O)[C@H](CCCCN)NC(=O)[C@H](CO)NC(=O)[C@H](CC(C)C)NC(=O)CNC(=O)[C@H](CCCCN)NC(=O)[C@H](CCCCN)NC(=O)[C@H](CC(N)=O)NC(=O)[C@H](C)NC(=O)CNC(=O)[C@H](CCCCN)NC(=O)[C@H](Cc2ccc(O)cc2)NC(=O)[C@H](CCCCN)NC(=O)[C@H](CCCNC(=N)N)NC(=O)[C@H](C)NC(=O)[C@H](CC(N)=O)NC(=O)[C@@H]2CCCN2C(=O)[C@H](Cc2c[nH]cn2)NC(=O)[C@H](CCC(=O)O)NC(=O)[C@@H](N)CCC(N)=O)CSSC[C@@H](C(=O)O)NC(=O)CNC(=O)[C@H](CC(C)C)NC(=O)CNC(=O)[C@H](CO)NC(=O)[C@H](CCSC)NC(=O)[C@H](CO)NC(=O)CNC1=O [Analog BL] as the compound, how does the “resistance to NEP cleavage/degradation (in words)” value (Recombinant human NEP) read?
A: resistant to NEP degradation

Q: For “PEG2K-CNP22(K4G): CNP22 having a K4G substitution, N-terminal PEGylated with PEG2K (PEG2K-GLSGGCFGLKLDRIGSMSGLGC; disulfide 6-22 (inferred); UniProt P23582 105-126, looked up, variant K4G)”, which “resistance to NEP cleavage/degradation (in words)” value (Recombinant human NEP) is on record?
A: only slightly more resistant to NEP cleavage than CNP22

Q: Which results are given for CC[C@H](C)[C@@H]1NC(=O)[C@H](CCCNC(=N)N)NC(=O)[C@H](CC(=O)O)NC(=O)[C@H](CC(C)C)NC(=O)[C@H](CCCCN)NC(=O)[C@H](CC(C)C)NC(=O)CNC(=O)[C@H](Cc2ccccc2)NC(=O)[C@@H](NC(=O)CNC(=O)[C@H](CCCNC(=N)N)NC(=O)[C@H](CO)NC(=O)[C@H](CC(C)C)NC(=O)CNC(=O)[C@@H](N)CCCNC(=N)N)CSSC[C@@H](C(=O)O)NC(=O)CNC(=O)[C@H](CC(C)C)NC(=O)CNC(=O)[C@H](CO)NC(=O)[C@H](CCSC)NC(=O)[C@H](CO)NC(=O)CNC1=O [AZ] (H-RGLSRGCFGLKLDRIGSMSGLGC-OH; disulfide 7-23 (inferred); N-terminus and C-terminus assumed)?
A: half-life at 100 uM [1]: ≥ 2.67 h; cGMP response relative to 1 uM CNP22 (%) at 0.01 µM (NPR-B; [2]): 54 ± 11%; cGMP response relative to 1 uM CNP22 (%) at 1 µM (NPR-B; [3]): 106 ± 15%

Q: CC[C@H](C)[C@@H]1NC(=O)[C@H](CCCNC(=N)N)NC(=O)[C@H](CC(=O)O)NC(=O)[C@H](CC(C)C)NC(=O)[C@H](CCCCN)NC(=O)[C@H](CC(C)C)N(C)C(=O)CNC(=O)[C@H](Cc2ccccc2)NC(=O)[C@@H](NC(=O)CNC(=O)[C@H](CCCCN)NC(=O)[C@H](CO)NC(=O)[C@H](CC(C)C)NC(=O)CN)CSSC[C@@H](C(=O)O)NC(=O)CNC(=O)[C@H](CC(C)C)N(C)C(=O)CNC(=O)[C@H](CO)NC(=O)[C@H](CCSC)NC(=O)[C@H](CO)NC(=O)CNC1=O [K] was tested. Which half-life at 100 uM [1] did it give?
A: 1.33 h

Q: What about the cGMP response relative to 1 uM CNP22 (%) at 0.01 µM (NPR-B; NIH3T3, […]) of the same compound?
A: 1%

Q: What about the cGMP response relative to 1 uM CNP22 (%) at 1 µM (NPR-B; NIH3T3, […]) of the same compound?
A: 1%

Q: CC[C@H](C)[C@@H]1NC(=O)[C@H](CCCNC(=N)N)NC(=O)[C@H](CC(=O)O)NC(=O)[C@H](CC(C)C)NC(=O)[C@H](CCCCN)NC(=O)[C@H](CC(C)C)NC(=O)CNC(=O)C(c2ccccc2)CNC(=O)[C@@H](NC(=O)CNC(=O)[C@H](CCCCN)NC(=O)[C@H](CO)NC(=O)[C@H](CC(C)C)NC(=O)CN)CSSC[C@@H](C(=O)O)NC(=O)CNC(=O)[C@H](CC(C)C)NC(=O)CNC(=O)[C@H](CO)NC(=O)[C@H](CCSC)NC(=O)[C@H](CO)NC(=O)CNC1=O (stereo partly shown) [H] (H-GLSKGC[X1]GLKLDRIGSMSGLGC-OH; disulfide 6-22; N-terminus and C-terminus assumed) was tested. Which “resistance to cleavage at the Cys6-Phe7 bond relative to wtCNP22” value (Recombinant human NEP) did it give?
A: resistance or improved resistance
